Biological target: T1, IRAK4 (Homo sapiens, UniProt Q9NWZ3)
T1 construct: C-terminal HiBiT-tagged Jurkat cells (polyclonal cell line or clone 8D5); endogenous in cells; host or cells: Jurkat cells (polyclonal cell line or clone 8D5), HiBiT-tagged
T1 sequence (Q9NWZ3 1-460): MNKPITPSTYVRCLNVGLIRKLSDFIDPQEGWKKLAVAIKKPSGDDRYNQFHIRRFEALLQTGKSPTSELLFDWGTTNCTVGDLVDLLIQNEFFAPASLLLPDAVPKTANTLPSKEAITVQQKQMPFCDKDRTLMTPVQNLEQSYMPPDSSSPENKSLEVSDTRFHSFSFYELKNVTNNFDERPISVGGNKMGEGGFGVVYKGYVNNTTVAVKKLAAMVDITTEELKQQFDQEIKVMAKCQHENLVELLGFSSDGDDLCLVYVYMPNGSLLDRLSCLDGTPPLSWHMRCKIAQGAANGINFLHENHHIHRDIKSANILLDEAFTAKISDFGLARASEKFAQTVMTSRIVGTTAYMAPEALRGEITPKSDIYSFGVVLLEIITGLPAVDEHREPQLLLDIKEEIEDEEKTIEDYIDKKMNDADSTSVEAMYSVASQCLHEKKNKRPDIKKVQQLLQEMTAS
Test: IRAK4 Degradation HiBit Assay
Type: cell-based
Settings: C-terminal HiBiT-tagged Jurkat cells, 4 hrs incubation; for DC50: % IRAK4 remaining, four-parameter fit (IC50 used as DC50); for Dmax: from fit of % IRAK4 remaining, read-out: Dmax
Method in brief: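 Degradation was quantified by luminescence after adding lytic detection reagent containing LgBiT to HiBiT-tagged Jurkat cells (polyclonal or clone 8D5). Cells were treated 4 h at 32 °C across 11 concentrations from 10 μM to 0.1 nM final. Four-parameter curve fitting of % IRAK4 remaining versus DMSO gave DC50 and Dmax.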

Row | Compound | DC50 [nM] | Dmax [%]
1 | N#Cc1cnn2c(-c3cc(NC4CCC(F)(F)CC4)c(-c4nnc(N5CCN(CC6CCN(c7ccc(C8CCC(=O)NC8=O)cn7)CC6)CC5)s4)cn3)ccc2c1 (racemic) [Example 1, rac-7-{4-[(4,4-difluorocyclohexyl)amino]-5-(5-{4-[(1-{5-[(3R)-2,6-dioxopiperidin-3-yl]pyridin-2-yl}piperidin-4-yl)methyl]piperazin-1-yl}-1,3,4-thiadiazol-2-yl)pyridin-2-yl}pyrrolo[1,2-b]pyridazine-3-carbonitrile] | 860 | 96
2 | CC(C)Nc1cc(-c2ccc3cc(C#N)cnn23)ncc1-c1nnc(N2CC3CCC(C2)N3CC2CCN(c3ccc([C@H]4CCC(=O)NC4=O)cc3)CC2)s1 (racemic) [Example 72, rac-7-[5-(5-{8-[(1-{4-[(3R)-2,6-dioxopiperidin-3-yl]phenyl}piperidin-4-yl)methyl]-3,8-diazabicyclo[3.2.1]octan-3-yl}-1,3,4-thiadiazol-2-yl)-4-[(propan-2-yl)amino]pyridin-2-yl]pyrrolo[1,2-b]pyridazine-3-carbonitrile] | 45 | 60
3 | N#Cc1cnn2c(-c3cc(NC4CCOCC4)c(-c4nnc(N5CCN(C6CC7(CCN(c8ccc(C9CCC(=O)NC9=O)cn8)CC7)C6)CC5)s4)cn3)ccc2c1 (racemic) [Example 74, rac-7-(5-{5-[4-(7-{5-[(3R)-2,6-dioxopiperidin-3-yl]pyridin-2-yl}-7-azaspiro[3.5]nonan-2-yl)piperazin-1-yl]-1,3,4-thiadiazol-2-yl}-4-[(oxan-4-yl)amino]pyridin-2-yl)pyrrolo[1,2-b]pyridazine-3-carbonitrile] | 23 | 71
4 | N#Cc1cnn2c(-c3cc(N[C@H]4CCOC4)c(-c4nnc(N5CCN(CC6CCN(c7ccc([C@@H]8CCC(=O)NC8=O)cn7)CC6)CC5)s4)cn3)ccc2c1 (single isomer, unassigned) [Example 130] | 22 | 112
5 | CNc1cc(-c2ccc3cc(C#N)cnn23)ncc1-c1nnc(N2CC3CCC(C2)N3C(=O)C2CCN(c3ccc([C@H]4CCC(=O)NC4=O)cn3)CC2)s1 (racemic) [Example 46, rac-7-(5-{5-[8-(1-{5-[(3R)-2,6-dioxopiperidin-3-yl]pyridin-2-yl}piperidine-4-carbonyl)-3,8-diazabicyclo[3.2.1]octan-3-yl]-1,3,4-thiadiazol-2-yl}-4-(methylamino)pyridin-2-yl)pyrrolo[1,2-b]pyridazine-3-carbonitrile] | 6 | 111
6 | N#Cc1cnn2c(-c3cc(NC4CCOCC4)c(-c4nnc(N5CC6CCC(C5)N6CC5CCN(c6ccc(N7CCC(=O)NC7=O)cc6)CC5)s4)cn3)ccc2c1 [Example 84, 7-(5-{5-[8-({1-[4-(2,4-dioxo-1,3-diazinan-1-yl)phenyl]piperidin-4-yl}methyl)-3,8-diazabicyclo[3.2.1]octan-3-yl]-1,3,4-thiadiazol-2-yl}-4-[(oxan-4-yl)amino]pyridin-2-yl)pyrrolo[1,2-b]pyridazine-3-carbonitrile] | 24 | 77
7 | N#Cc1cnn2c(-c3cc(NC4CC4)c(-c4nnc(N5CCN(CC6CCN(c7ccc(N8CCC(=O)NC8=O)cc7)CC6)CC5)s4)cn3)ccc2c1 [Example 83, 7-[4-(cyclopropylamino)-5-{5-[4-({1-[4-(2,4-dioxo-1,3-diazinan-1-yl)phenyl]piperidin-4-yl}methyl)piperazin-1-yl]-1,3,4-thiadiazol-2-yl}pyridin-2-yl]pyrrolo[1,2-b]pyridazine-3-carbonitrile] | 52 | 80
8 | N#Cc1cnn2c(-c3cc(NC4CCOCC4)c(-c4nnc(C56CCC(C(=O)N7CCC(Oc8ccc(C9CCC(=O)NC9=O)cn8)CC7)(CC5)CC6)s4)cn3)ccc2c1 (racemic) [Example 21, rac-7-[5-(5-{4-[4-({5-[(3R)-2,6-dioxopiperidin-3-yl]pyridin-2-yl}oxy)piperidine-1-carbonyl]bicyclo[2.2.2]octan-1-yl}-1,3,4-thiadiazol-2-yl)-4-[(oxan-4-yl)amino]pyridin-2-yl]pyrrolo[1,2-b]pyridazine-3-carbonitrile] | 60 | 91
9 | CCNc1cc(-c2ccc3cc(C#N)cnn23)ncc1-c1nnc(N2CC3CCC(C2)N3CC2CCN(c3ccc([C@H]4CCC(=O)NC4=O)cn3)CC2)s1 (racemic) [Example 89, rac-7-[5-(5-{8-[(1-{5-[(3R)-2,6-dioxopiperidin-3-yl]pyridin-2-yl}piperidin-4-yl)methyl]-3,8-diazabicyclo[3.2.1]octan-3-yl}-1,3,4-thiadiazol-2-yl)-4-(ethylamino)pyridin-2-yl]pyrrolo[1,2-b]pyridazine-3-carbonitrile] | 24 | 112
10 | CNc1cc(-c2ccc3cc(C#N)cnn23)ncc1-c1nnc(N2CCC(N3CCN(CC4CCN(c5ccc(C6CCC(=O)NC6=O)cn5)CC4)CC3)CC2)s1 (racemic) [Example 50, 7-[5-(5-{4-[4-({1-[5-(2,6-dioxopiperidin-3-yl)pyridin-2-yl]piperidin-4-yl}methyl)piperazin-1-yl]piperidin-1-yl}-1,3,4-thiadiazol-2-yl)-4-(methylamino)pyridin-2-yl]pyrrolo[1,2-b]pyridazine-3-carbonitrile] | 91 | 111
11 | CNc1cc(-c2ccc3cc(C#N)cnn23)ncc1-c1nnc(C2CCC(C(=O)N3CCN(c4ccc([C@@H]5CCC(=O)NC5=O)cc4)CC3)CC2)s1 (mixture of isomers) [Example 32, 7-[4-(methylamino)-5-{5-[(1rs&,4rs&)-4-(4-{4-[(3RS)-2,6-dioxopiperidin-3-yl]phenyl}piperazine-1-carbonyl)cyclohexyl]-1,3,4-thiadiazol-2-yl}pyridin-2-yl]pyrrolo[1,2-b]pyridazine-3-carbonitrile] | 10 | 54
12 | N#CCNc1cc(-c2ccc3cc(C#N)cnn23)ncc1-c1nnc(N2CCN(CC3CCN(c4ccc(C5CCC(=O)NC5=O)cn4)CC3)CC2)s1 (racemic) [Example 59, rac-7-{4-[(cyanomethyl)amino]-5-(5-{4-[(1-{5-[(3R)-2,6-dioxopiperidin-3-yl]pyridin-2-yl}piperidin-4-yl)methyl]piperazin-1-yl}-1,3,4-thiadiazol-2-yl)pyridin-2-yl}pyrrolo[1,2-b]pyridazine-3-carbonitrile] | 7 | 120
13 | COC[C@@H](C)Nc1cc(-c2ccc3cc(C#N)cnn23)ncc1-c1nnc(N2CC3CCC(C2)N3CC2CCN(c3ccc(C4CCC(=O)NC4=O)cn3)CC2)s1 (mixture of isomers) [Example 114, 7-[5-(5-{8-[(1-{5-[(3RS)-2,6-dioxopiperidin-3-yl]pyridin-2-yl}piperidin-4-yl)methyl]-3,8-diazabicyclo[3.2.1]octan-3-yl}-1,3,4-thiadiazol-2-yl)-4-{[(2R)-1-methoxypropan-2-yl]amino}pyridin-2-yl]pyrrolo[1,2-b]pyridazine-3-carbonitrile] | 100 | 110
